Legend:
[1] = system: alloxan-induced diabetic mice; assay: In vivo oral hypoglycemic activity, acute study; settings: for % Change in SG: diabetic mice
Procedure: The percentage change in blood glucose levels in diabetic mice after oral administration of the test compounds, at a concentration of 200 μg/kg body weight, were determined at 2, 4, 6, and 24 hours.
The synthesized compounds were screened for hypoglycemic activity in vivo using the alloxan-induced diabetic mice model. For the acute study, animals were fasted overnight and the fasting blood serum glucose (SG) level was determined at 0 hours. Then the compounds were administered at a fixed dose of 200 μg/kg body weight orally (homogenized suspension in 0.5% carboxymethyl cellulose (CMC) with Tween 80). Animals in the vehicle group were given an equal amount of 0.5% CMC, while those in the control group were maintained as is. Blood samples were removed from all animals at 2, 4, 6 and 24 hours and percentage change in SG was calculated. See, Dunn, J. S., Letchie, N. G., “Experimental alloxan diabetes in the rat,” The Lancet 242(6265): 384-387 (1943); and Mourao R. H., Silva T. G., et al., “Synthesis and Biological Activity of Novel Acridinylidene and Benzylidene thiazolidinediones,” Eur. J. Med. Chem., 40: 1129-1133 (2005).

[2] = system: alloxan-induced diabetic mice; assay: In vivo oral hypoglycemic activity, sub-acute study
Procedure: Study animals were fasted overnight, and the fasting SG levels calculated at 0 days. The test compounds were administered at a fixed dose of 200 μg/kg body weight orally (homogenized suspension in 0.5% CMC and permissible amounts of Tween 80) for 21 days at a fixed time. After 21 days, treatment was stopped and animals were left for a rest period of 7 days. Animals in the vehicle group were given an equal amount of 0.5% CMC, while those in the control group were maintained as is. During the study, blood samples were removed from all animals at 7, 14, 21 and 28 days, and the percentage change in SG was calculated. The data obtained were analyzed by one-way ANOVA followed by the Dunnett test. The results were expressed as mean±standard error of mean (SEM) for each group, while p<0.01 or p<0.05 was considered to be statistically significant. The percentage changes in blood glucose levels after oral administration, at 200 μg/kg body weight, were evaluated, and are reported in Table 5.

[3] = molecular target: α-Glucosidase from Saccharomyces cerevisiae; assay: α-Glucosidase inhibitory activity (chromogenic method); assay type: biochemical; settings: mean ± S.E.M., n = 6
Procedure: The α-Glucosidase inhibitory activity of each compound was determined according to the chromogenic method described by Chapdelaine et al with slight modifications. See, Chapdelaine P., Tremblay R. R., Dube, J. Y., “P-Nitrophenol-alpha-D-gluco-pyranoside as substrate for measurement of maltase activity in human semen,” Clin. Chem., 24: 208-211 (1978). α-Glucosidase from Saccharomyces cerevisiae and substrate solution […] (PNPG) were prepared with 0.1 mol L^−1 of Na-phosphate buffer (pH 6.8). The inhibitors were reconstituted in […] phosphate buffer in a 96-well microplate and incubated with […] α-Glucosidase at 37° C. for 15 minutes, and then 30 μL substrate was added. After incubation with substrate for 5 minutes, release of p-nitrophenol was measured at 405 nm by spectrophotometry. Percentage of enzyme inhibition was calculated according to {1−(Asample−Ablank)/Acontrol}×100, where Asample represents absorbance of test samples, Acontrol represents absorbance of solution without sample, and A blank represents absorbance in presence of solution without substrate.

DPP-IV = molecular target: T1, DPP-IV (Homo sapiens, UniProt P27487); assay: DPP-IV inhibition activity (fluorescence); assay type: biochemical; settings: mean ± S.E.M., n = 6
T1 construct: purchased Sigma
T1 sequence (P27487 whole entry, species assumed): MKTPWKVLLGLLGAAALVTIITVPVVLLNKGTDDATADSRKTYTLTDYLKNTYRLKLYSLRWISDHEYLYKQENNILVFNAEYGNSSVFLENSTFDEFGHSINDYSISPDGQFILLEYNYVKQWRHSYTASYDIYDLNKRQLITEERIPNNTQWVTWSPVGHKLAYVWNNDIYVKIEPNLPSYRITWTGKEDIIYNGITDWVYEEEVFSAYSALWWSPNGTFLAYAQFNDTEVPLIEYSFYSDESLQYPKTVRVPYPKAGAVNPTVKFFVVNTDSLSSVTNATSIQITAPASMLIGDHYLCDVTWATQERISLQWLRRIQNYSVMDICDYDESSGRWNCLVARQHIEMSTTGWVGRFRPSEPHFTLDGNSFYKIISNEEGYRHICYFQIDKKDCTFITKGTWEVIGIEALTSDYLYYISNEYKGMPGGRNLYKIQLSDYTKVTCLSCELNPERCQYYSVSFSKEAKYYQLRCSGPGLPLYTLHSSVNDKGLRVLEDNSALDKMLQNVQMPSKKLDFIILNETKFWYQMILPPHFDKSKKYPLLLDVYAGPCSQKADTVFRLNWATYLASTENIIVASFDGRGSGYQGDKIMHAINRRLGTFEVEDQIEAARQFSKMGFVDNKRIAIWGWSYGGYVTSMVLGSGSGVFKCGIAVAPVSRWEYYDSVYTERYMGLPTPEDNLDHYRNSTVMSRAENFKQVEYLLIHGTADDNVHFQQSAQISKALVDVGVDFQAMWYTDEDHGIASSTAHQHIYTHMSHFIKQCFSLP
Procedure: A […] reaction system containing DPP-IV (Sigma), a test compound, and 25 mmol/L 4-(2-hydroxyethyl)-1-piperazineethanesulfonic acid (HEPES) buffer (containing 140 mmol/L NaCl, 1% Bovine serum albumin (BSA) and 80 mmol/L MgCl2) was pre-incubated at room temperature for 10 minutes. The reaction was initiated by the addition of […], and the reaction mixture was then incubated at room temperature for 25-45 minutes. […] A negative control (no test compound) and a blank control (no enzyme) were run simultaneously. The test compounds were initially assayed in duplicate at a concentration of 10 mg/mL.

PPAR = PPAR agonist activity, PPRE-Luc dual luciferase reporter in HepG2 cells; assay type: cell-based; settings: mean ± S.E.M., n = 6
Procedure: HepG2 cells were cultured in low glucose Dulbecco's Modified Eagle's medium (DMEM) supplemented with 100 U/mL streptomycin and penicillin. One day prior to transfection, the cells were plated in 96-well plates at 1.5×10^4 cells per well. After reaching 70% confluence, plasmid peroxisome proliferator responsive element-luciferase (PPRE-Luc) with firefly luciferase reporter gene and the control plasmid phRL-TK with renilla luciferase reporter gene were transfected into the cells. After 24 hours, the medium was replaced with either fresh medium (negative control) or fresh medium containing a test compound (10 mg/mL) or pioglitazone (positive control). Non-transfected cells were used as blank. After a further 24 hours, the expression of luciferases was measured using the Dual Luciferase Reporter Gene Assay Kit (Promega). The percent activation (T %) was calculated as [(L1sample−L1Blank)/(L1Negative−L1Blank)]/[(L2Sample−L2Blank)/(L2Negative−L2Blank)]×100%, where L1 represents the value for the value for firefly luciferase and L2 the value for Renilla luciferase. Xing-hua Z., Jufang Y., LiFan, W., Dacheng Y., “Synthesis and antidiabetic activity of β-acetamido ketones,” Acta Pharmaceutica Sinica 1(2):100-105 (2011).

[4] = 2 h after 200 μg/kg body weight orally
[5] = 4 h after 200 μg/kg body weight orally
[6] = 6 h after 200 μg/kg body weight orally
[7] = 24 h after 200 μg/kg body weight orally
[8] = 7 day, 200 μg/kg body weight orally daily
[9] = 7 days rest period after 21 days of treatment, 200 μg/kg orally
[10] = 14 day, 200 μg/kg body weight orally daily
[11] = 21 day, 200 μg/kg body weight orally daily

**Q.** What does the source list for “methyl-2-{N-(morpholino) methane}-3β-hydroxy-3α-phenyl-18β-Olean-12-ene-28-oate [Compound 6]”?
**A.** % Change in SG [1, 4]: −73.60%; % Change in SG [1, 5]: −80.74%; % Change in SG [1, 6]: −82.33%; % Change in SG [1, 7]: −77.80%; % Change in SG [2, 8]: −61.68%; % Change in SG [2, 9]: −85.89%; % Change in SG [2, 10]: −70.54%; % Change in SG [2, 11]: −86.45%

**Q.** Which results are given for “methyl-2-{N-(morpholino)methane}-3-oxo-18β-olean-12-ene-28-oate [Compound 5]”?
**A.** % Change in SG [1, 4]: −70.60%; % Change in SG [1, 5]: −79.01%; % Change in SG [1, 6]: −80.43%; % Change in SG [1, 7]: −75.41%; % Change in SG [2, 8]: −60.89%; % Change in SG [2, 9]: −84.29%; % Change in SG [2, 10]: −70.53%; % Change in SG [2, 11]: −85.45%

**Q.** With “methyl-2-{phenyl-(4-pyridyl)-methane}-3-oxo-18β-olean-12-en-28-oate [Compound 3]” as the compound, how does the “% Change in SG” value [1, 4] read?
**A.** −75.78%

**Q.** What about the “% Change in SG” value [1, 5] of the same compound?
**A.** −82.76%

**Q.** What about the “% Change in SG” value [1, 6] of the same compound?
**A.** −85.74%

**Q.** What about the “% Change in SG” value [1, 7] of the same compound?
**A.** −79.67%

**Q.** What about the “% Change in SG” value [2, 8] of the same compound?
**A.** −66.76%

**Q.** And the “% Change in SG” value [2, 9]?
**A.** −83.56%

**Q.** What about the “% Change in SG” value [2, 10] of the same compound?
**A.** −73.65%

**Q.** And the “% Change in SG” value [2, 11]?
**A.** −89.76%

**Q.** And the IC50 [3]?
**A.** 123 ± 4 nM

**Q.** What does the source list for “methyl-2-{4-pyridylidene}-3-oxo-18β-Olean-12-en-28-oate [Compound 2]”?
**A.** % Change in SG [1, 4]: −74.70%; % Change in SG [1, 5]: −81.67%; % Change in SG [1, 6]: −84.30%; % Change in SG [1, 7]: −80.78%; % Change in SG [2, 8]: −62.35%; % Change in SG [2, 9]: −86.25%; % Change in SG [2, 10]: −71.78%; % Change in SG [2, 11]: −87.54%

**Q.** `C[C@H]1O[C@H](O[C@H]2[C@H](O)[C@@H](O)[C@@H](O[C@H]3[C@H](O)[C@@H](O)C(O)O[C@@H]3CO)O[C@@H]2CO)[C@H](O)[C@@H](O)[C@@H]1N[C@H]1C=C(CO)[C@@H](O)[C@H](O)[C@H]1O` (stereo partly shown) [Acarbose, reference compound] was tested. Which IC50 (DPP-IV) did it give?
**A.** 176000 nM

**Q.** And the “% Change in SG” value [1, 4]?
**A.** −29.23%

**Q.** And the “% Change in SG” value [1, 5]?
**A.** −27.87%

**Q.** And the “% Change in SG” value [1, 6]?
**A.** −20.17%

**Q.** And the “% Change in SG” value [1, 7]?
**A.** −22.39%

**Q.** And the “% Change in SG” value [2, 8]?
**A.** −18.29%

**Q.** And the “% Change in SG” value [2, 9]?
**A.** −27.65%

**Q.** What about the “% Change in SG” value [2, 10] of the same compound?
**A.** −24.55%

**Q.** And the “% Change in SG” value [2, 11]?
**A.** −31.78%

**Q.** `COC(=O)[C@]12CCC(C)(C)C[C@H]1C1=CC[C@@H]3[C@@]4(C)CCC(=O)C(C)(C)[C@@H]4CC[C@@]3(C)[C@]1(C)CC2` [Compound 1, 3-oxo-oleanolic acid methyl ester] was tested. Which IC50 (PPAR) did it give?
**A.** 120 ± 4 nM

**Q.** And the IC50 (DPP-IV)?
**A.** 91 ± 0.9 nM

**Q.** What about the “% Change in SG” value [1, 4] of the same compound?
**A.** −69.40%

**Q.** And the “% Change in SG” value [1, 5]?
**A.** −71.89%

**Q.** What about the “% Change in SG” value [1, 6] of the same compound?
**A.** −79.32%

**Q.** And the “% Change in SG” value [1, 7]?
**A.** −73.29%

**Q.** What about the “% Change in SG” value [2, 8] of the same compound?
**A.** −59.76%

**Q.** And the “% Change in SG” value [2, 9]?
**A.** −81.20%

**Q.** What about the “% Change in SG” value [2, 10] of the same compound?
**A.** −68.78%

**Q.** What about the “% Change in SG” value [2, 11] of the same compound?
**A.** −84.65%

**Q.** And the IC50 [3]?
**A.** 1700 ± 30 nM

**Q.** What does the source list for `CCc1ccc(CCOc2ccc(CC3SC(=O)NC3=O)cc2)nc1` (stereo not shown) [Pioglitazone, reference compound]?
**A.** % Change in SG [1, 4]: −32.16%; % Change in SG [1, 5]: −22.45%; % Change in SG [1, 6]: −12.34%; % Change in SG [1, 7]: −13.28%; time of maximum activity post-administration ([1]; acute study, 200 μg/kg orally): 2 h; % Change in SG [2, 8]: −11.23%; % Change in SG [2, 9]: −43.45%; % Change in SG [2, 10]: −18.34%; % Change in SG [2, 11]: −50.39%

**Q.** How did the IC50 (PPAR) turn out when “methyl-2-{(4-pyridyl)-N-morpholinylmethane}-3-oxo-18β-olean-12-en-28-oate [Compound 4]” was run?
**A.** 7.8 ± 0.5 nM

**Q.** And the IC50 (DPP-IV)?
**A.** 4.4 ± 0.5 nM

**Q.** What about the “% Change in SG” value [1, 4] of the same compound?
**A.** −78.88%

**Q.** What about the “% Change in SG” value [1, 5] of the same compound?
**A.** −85.89%

**Q.** What about the “% Change in SG” value [1, 6] of the same compound?
**A.** −90.00%

**Q.** What about the “% Change in SG” value [1, 7] of the same compound?
**A.** −88.88%

**Q.** What about the “% Change in SG” value [2, 8] of the same compound?
**A.** −67.90%

**Q.** What about the “% Change in SG” value [2, 9] of the same compound?
**A.** −86.43%

**Q.** And the “% Change in SG” value [2, 10]?
**A.** −74.78%

**Q.** And the “% Change in SG” value [2, 11]?
**A.** −90.87%

**Q.** What about the IC50 [3] of the same compound?
**A.** 87 ± 1 nM

**Q.** Which results are given for `CC1(C)CC[C@]2(C(=O)O)CC[C@]3(C)C(=CC[C@@H]4[C@@]5(C)CC[C@H](O)C(C)(C)[C@@H]5CC[C@]43C)[C@@H]2C1` [Oleanolic acid, reference compound]?
**A.** IC50 (PPAR): 14900 nM; % Change in SG [1, 4]: −40.79%; % Change in SG [1, 5]: −48.66%; % Change in SG [1, 6]: −52.17%; % Change in SG [1, 7]: −51.01%; % Change in SG [2, 8]: −10.56%; % Change in SG [2, 9]: −30.32%; % Change in SG [2, 10]: −20.35%; % Change in SG [2, 11]: −37.68%
